Where two headings read alike, the source gives them in different places.
Tests used:
[1] = system: IL-4-induced STAT6 phosphorylation, Ramos cells; experiment: IL-4-induced STAT6 phosphorylation in Ramos cells; assay type: cell-based; details: Homo sapiens, IL-4 stimulation, read-out: pSTAT6 (IC50)
Procedure: For the determination of IL-4-induced STAT6 phosphorylation, Ramos cells (ATCC) are plated in 96 well plates at 1.0×10^4 cells per well 10% FBS RPMI-1640 and incubated at 37° C., 5% CO2 for 3 hours. Cells were incubated with compounds for 30 minutes prior to stimulation with interleukin-4 (10 ng/ml final) for an additional 30 minutes. Cells are then fixed in 2% paraformaldehyde for 45 minutes and incubated in ice-cold methanol for 30 minutes. After washing in PBS, cells are incubated with rabbit anti-phospho-STAT6 (Y641) (Cell Signaling Technologies, 1:1000 in antibody dilution solution) primary antibody overnight at 4° C. Goat anti-rabbit IgG Alexa 488 (Invitrogen, 1:1,000 dilution in PBS) secondary antibody is added for 90 minutes prior to PBS washes. Cells are counted following incubation in a 7.5 uM propidium iodide, 100 µg/ml RNaseA, PBS solution for 60 minutes in the dark. Plates are read on an Acumen X3 instrument (TPP Labtech).
(§1) Percent inhibition is calculated using the following formula: Inhibition (%)=100−((inhibitor treatment−cell)/(stimulator−cell))×100
(§2) where: Inhibitor treatment represents cell activation percentage of wells treated by both compound and stimulator (IL-6, IL-3 or IL-4); Cell represents the cell activation percentage of wells treated by neither compound nor stimulator (IL-6, IL-3 or IL-4). Stimulator represents the cell activation percentage of wells treated by stimulator (IL-6, IL-3 or IL-4) only.

[2] = target: Recombinant human JAK1 catalytic domain (Homo sapiens (Human), UniProt P23458); experiment: JAK1 kinase assay (Z'-LYTE Tyr 6 Peptide); assay type: biochemical; details: read-out: inhibition percentage (IR %)
Procedure: JAK1/2/3 kinase assay are performed in vitro using Kit-Tyr 6 Peptide (Invitrogen, Cat. No. PV4122). TYK2 kinase assay are performed in vitro using Z′-LYTE™ Kinase Assay Kit-Tyr 3 Peptide (Invitrogen, Cat. No. PV3192). […] All compounds are initially tested at 8 different concentrations (1 μM down to 0.0003 μM) using a 1:3 serial dilution scheme.

[3] = system: IL-6-induced STAT3 phosphorylation, HepG2 cells; experiment: IL-6-induced STAT3 phosphorylation in HepG2 cells; assay type: cell-based, human; details: IL-6 stimulation, read-out: pSTAT3 (IC50)
Procedure: For the determination of IL-6-induced STAT3 phosphorylation, HepG2 cells (SIBS) are seeded in 96 well plates at […] cells per well in Serum Free DMEM media overnight and incubated in the presence or absence of various concentrations of diluted compound for 30 min at 37° C., 5% CO2. Cells were stimulated by adding 10 ng/ml human recombinant IL-6 to each well for 15 minutes at 37° C., 5% CO2. Cells are then fixed in 2% paraformaldehyde for 45 minutes at room temperature and incubated in ice-cold methanol for 30 minutes. After washing in PBS, cells are incubated with rabbit anti-phospho-STAT3 (Y705) (Cell Signaling Technologies, 1:1000 in antibody dilution solution) primary antibody overnight at 4° C. Goat anti-rabbit IgG Alexa 488 (Invitrogen, 1:1,000 dilution in PBS) secondary antibody is added for 90 minutes prior to PBS washes. Cells are counted following incubation in a 7.5 uM propidium iodide, 100 μg/ml RNaseA, PBS solution for 60 minutes in the dark. Plates are read on an Acumen X3 instrument (TPP Labtech).
as §1, §2

[4] = system: IL-3-induced STAT5 phosphorylation, TF-1 cells; experiment: IL-3-induced STAT5 phosphorylation in TF-1 cells; assay type: cell-based, human; details: IL-3 stimulation, read-out: pSTAT5 (IC50)
Procedure: For the determination of IL-3-induced STAT5 phosphorylation, TF-1 cells (ATCC) are plated in 96 well plates at 1×10^4 cells per well in 10% FBS RPMI-1640 media at 37° C., 5% CO2 for 3 hours. Cells were incubated in the presence or absence of various concentrations of diluted compound for 30 min at 37° C., 5% CO2. Cells were stimulated by adding 10 ng/ml human recombinant IL-3 to each well for 30 minutes at 37° C., 5% CO2. Cells are then fixed in 2% paraformaldehyde for 45 minutes at room temperature and incubated in ice-cold methanol for 30 minutes. After washing in PBS, cells are incubated with rabbit anti-phospho-STAT5 (Y694) (Cell Signaling Technologies, 1:1000 in antibody dilution solution) primary antibody overnight at 4° C. Goat anti-rabbit IgG Alexa 488 (Invitrogen, 1:1,000 dilution in PBS) secondary antibody is added for 90 minutes prior to PBS washes. Cells are counted following incubation in a 7.5 uM propidium iodide, 100 µg/ml RNaseA, PBS solution for 60 minutes in the dark. Plates are read on an Acumen X3 instrument (TPP Labtech).
as §1, §2

[5] = JAK1 kinase assay, 0.3 uM concentration

Recombinant human JAK1 catalytic domain, sequence (P23458 875-1153): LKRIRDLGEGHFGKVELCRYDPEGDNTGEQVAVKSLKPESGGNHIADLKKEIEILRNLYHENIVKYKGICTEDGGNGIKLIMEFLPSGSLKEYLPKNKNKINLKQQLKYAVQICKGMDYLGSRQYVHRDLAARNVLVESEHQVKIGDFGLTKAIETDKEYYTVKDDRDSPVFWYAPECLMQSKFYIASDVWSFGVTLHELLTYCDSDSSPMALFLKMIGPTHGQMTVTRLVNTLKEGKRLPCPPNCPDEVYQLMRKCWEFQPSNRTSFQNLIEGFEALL

| Structure (SMILES) | IC50 [1] | inhibition at 0.3 µM [2, 5] | IC50 ([3]; Homo sapiens) | IC50 ([4]; Homo sapiens) | inhibition at 0.3 µM [2] | IC50 [3] | IC50 [4] |
| --- | --- | --- | --- | --- | --- | --- | --- |
| CN(c1ccc(C#N)c(F)c1)[C@@H]1CCN(c2ncnc3[nH]ccc23)C1 [Compound 105] |  | 50 to 100% | 9 nM | 1680 nM |  |  |  |
| CN(c1ncc(C#N)cn1)[C@@H]1CCN(c2ncnc3[nH]ccc23)C1 [Compound 142, (R)-2-((1-(7H-pyrrolo[2,3-d]pyrimidin-4-yl)pyrrolidin-3-yl)(methyl)amino)pyrimidine-5-carbonitrile] | 336 nM |  | 65 nM | 3070 nM | 20 to 50% |  |  |
| CN(c1ccc(C(=O)Nc2nccs2)cn1)[C@@H]1CCN(c2ncnc3[nH]ccc23)C1 [Compound 199] |  |  |  |  |  | 50 nM | 7550 nM |
| CN(c1ccc(C(=O)N[C@@H]2c3ccccc3C[C@H]2O)cc1F)[C@@H]1CCN(c2ncnc3[nH]ccc23)C1 [Compound 206] | 180 nM | 50 to 100% | 23.9 nM | 693 nM |  |  |  |

Second part, led by results:

| IC50 [1] | inhibition at 0.3 µM [2, 5] | IC50 ([3]; Homo sapiens) | IC50 ([4]; Homo sapiens) | Structure (SMILES) | inhibition at 0.3 µM [2] | IC50 [3] | IC50 [4] |
| --- | --- | --- | --- | --- | --- | --- | --- |
| 1150 nM | 50 to 100% | 824 nM | 1490 nM | CNS(=O)(=O)N(C)[C@@H]1CCN(c2ncnc3[nH]ccc23)C1 [Compound 47] |  |  |  |
| 385 nM | 50 to 100% | 337 nM | 857 nM | CN(c1ccc(S(N)(=O)=O)cn1)[C@@H]1CCN(c2ncnc3[nH]ccc23)C1 [Compound 234] |  |  |  |
